Source: patent US9382249B2, “Antitumor aza-benzo [f] azulen derivative, method for preparing same, and use thereof” (TIANYI BIOSCIENCE CO. LTD., priority 2012, dated 2016)

Assays:
[1] = test system: human gastric cancer MGC-803 tumor transplanted in nude mice; assay: Growth inhibition of human gastric cancer MGC-803 tumor transplanted in nude mice; type: in vivo; conditions: MGC-803 xenograft
Procedure: (§1) Method: 1. Establishing model of human gastric cancer MGC-803 tumor transplanted in nude mice, and animal groups: MGC-803 cell lines were cultured with medium RPMI1640 containing 10% fetal bovine serum. MGC-803 cells at logarithmic growth phase were trypsinized into single cell suspension. Final concentration of the cell was adjusted with medium RPMI1640 into 5×10^7/mL. 0.2 mL of cell suspension was injected subcutaneously into right anterior axillary of each nude mouse. 8 days after inoculation, when the tumor size grew to about 110 mm^3, the mice were randomized into five groups according to tumor size and body weight of mice, with 10 mice in each group. 5 groups were: a blank control group (purified water containing 0.5% of hydroxypropyl methylcellulose and 0.1% Tween 80, administered through gavage, once per day, for […]), 4, 6 and 9 mg/kg of I-2 treatment group (administered through gavage, once per day, for 17 days), and 100 mg/kg cyclophosphamide group (by intraperitoneal injection, once every 7 days, for 3 weeks), respectively.
(§2) 2. Growth situation of subcutaneous human gastric cancer tumor transplanted in nude mice and inhibitory effect was observed: from the dosing day, body weight of nude mouse as well as the maximum diameter (D) and minimum diameter (d) of tumor were observed every 3-4 days. The tumor size was calculated following the formula V=Dd^2/2, and the tumor growth curve was plotted. At the end of the experiment, the tumor was dissected in whole and picture was taken. Growth rate of nude mouse body weight before and after treatment=[(body weight after treatment−body weight before treatment)/body weight before treatment]*100%; tumor inhibition rate=[1−(tumor size after treatment in the experiment group−tumor size before treatment in the experiment group)/(tumor size after treatment in the control group−tumor size before treatment in the control group)]*100%

[2] = test system: human gastric cancer SGC-7901 tumor transplanted in nude mice; assay: Growth inhibition of human gastric cancer SGC-7901 tumor transplanted in nude mice; type: in vivo; conditions: SGC-7901 xenograft
Procedure: (§3) Method: 1. Establishing model of human gastric cancer SGC-7901 tumor transplanted in nude mice, and animal groups: SGC_7901 cell lines were cultured with medium RPMI1640 containing 10% fetal bovine serum. SGC-7901 cells at logarithmic growth phase were trypsinized into single cell suspension. Final concentration of the cell was adjusted with medium RPMI1640 into 5×10^7/mL. 0.2 mL of cell suspension was injected subcutaneously into right anterior axillary of each nude mouse. 14 days after inoculation, when the tumor size grew to about 130 to 180 mm^3, the nude mice were randomized into five groups according to tumor size and body weight of mice, with 8-12 mice in each group. 5 groups were: a blank control group (purified water containing 0.5% of hydroxypropyl methylcellulose and 0.1% Tween 80, administered through gavage, each at morning and evening, for 10 days), 12.5, 25 and 50 mg/kg of I-1 treatment group (administered through gavage, each at morning and evening, for 10 days), and 100 mg/kg cyclophosphamide (CYP) group (by intraperitoneal injection, once every 5 days, for 2 weeks), respectively.
as §2, with “two” for “3-4”

[3] = test system: human breast ductal cancer cell line BT-549; assay: MTT growth inhibition assay, BT-549; type: cell-based; conditions: BT-549, MTT, 96 hours incubation
Procedure: (§4) Method: Cells in the logarithmic growth phase (human gastric cancer cell lines SGC-7901, MGC-803, human oral epidermoid carcinoma cell line KB, human non-small cell lung cancer cell line A549, human breast ductal cancer cell line BT-549, human prostate cancer cell line PC-3, human colon cancer cell line HT-29, human brain astrocytic glioblastoma cell line U-87MG and a human hepatoma cell line SMMC-7721) at a concentrations of 1.5×10^4 were inoculated in 96 well plates. The original medium was removed after cell culture for 24 hours until adherence. The tests included blank control group and drug treatment group. For the control group, the medium was replaced with 1640 medium containing 10% fetal bovine serum; for the drug treatment group, the medium was replaced with medium containing compounds I-1, I-2 and I-3 to be tested at concentrations of 100 μM, 50 μM, 10 μM, 1 μM, 0.1 μM, 0.01 μM, 0.001 μM, 0.0001 μM and 0.00001 μM. After incubation for 96 hours add MTT at a concentration of 5 mg/mL, and resume incubation in a CO2 incubator for 4 hours. And then along the upper part of the culture solution, remove 100 μL, of supernatant, add 100 μL of DMSO, allow to place at a dark for 10 minutes. With a microplate reader (a product from Sunrise company), absorbance was measured (at wavelength 570 nm), and cell survival situation is calculated based on the absorbance. Six duplicated wells were set for each treatment. Cell viability (%)=ΔODdrug treatment/ΔODblank control×100.

[4] = test system: human gastric cancer cell line SGC-7901; assay: MTT growth inhibition assay, SGC-7901; type: cell-based; conditions: SGC-7901, MTT, 96 hours incubation
Procedure: as §4

[5] = test system: human prostate cancer cell line PC-3; assay: MTT growth inhibition assay, PC-3; type: cell-based; conditions: PC-3, MTT, 96 hours incubation
Procedure: as §4

[6] = test system: a variety of human tumor cell lines; assay: Growth inhibition on various strains of human tumor cell with MTT assay (overall statements); type: cell-based; conditions: in words
Procedure: as §4, with “Six duplicated wells were set for each treatment. Cell viability (%)=ΔODdrug treatment/ΔODblank control×100.” left out

[7] = test system: human brain astrocytic glioblastoma cell line U-87MG; assay: MTT growth inhibition assay, U-87MG; type: cell-based; conditions: U-89MG [sic], 96 hours incubation
Procedure: as §4

[8] = test system: human hepatoma cell line SMMC-7721; assay: MTT growth inhibition assay, SMMC-7721; type: cell-based; conditions: SMMC-7721, MTT, 96 hours incubation
Procedure: as §4

[9] = test system: human colon cancer cell line HT-29; assay: MTT growth inhibition assay, HT-29; type: cell-based; conditions: HT-29, MTT, 96 hours incubation
Procedure: as §4

[10] = Body weight change / toxicity in SGC-7901 tumor-bearing nude mice
Procedure: as §3
(§5) 2. […] The tumor size was calculated following the formula V=Dd^2/2, and the tumor growth curve was plotted. […]

[11] = test system: human non-small cell lung cancer cell line A549; assay: MTT growth inhibition assay, A549; type: cell-based; conditions: 96 hours incubation
Procedure: as §4

[12] = test system: human oral epidermoid carcinoma cell line KB; assay: MTT growth inhibition assay, KB; type: cell-based; conditions: 96 hours incubation
Procedure: as §4

[13] = test system: human gastric cancer cell line MGC-803; assay: MTT growth inhibition assay, MGC-803; type: cell-based; conditions: MGC-803, MTT, 96 hours incubation
Procedure: as §4

[14] = Body weight change / toxicity in MGC-803 tumor-bearing nude mice
Procedure: as §1, §5

Structure (SMILES)	IC50 [3]	IC50 [4]	IC50 [5]	Inhibitory effect on the growth of a variety of human tumor cell lines [6]	IC50 [7]	IC50 [8]	IC50 [9]	IC50 [11]	IC50 [12]	IC50 [13]	also measured
O=P1(N(CCCl)CCCl)NCCCO1 (centres unmarked) [CYP, cyclophosphamide, reference compound]											Tumor inhibition rate ([1]; 100 mg/kg, intraperitoneal injection, once every 7 days, for 3 weeks): 62.4%; Tumor inhibition rate ([2]; 100 mg/kg, intraperitoneal injection, once every 5 days, for 2 weeks): 39.5%
Cc1cc2c(cn1)C(c1ccccc1Cl)=Nc1c(n[nH]c1C)N2 [Compound I-1]	390 ± 230 nM	290 ± 130 nM	1900 ± 390 nM	very significant inhibition	400 ± 20 nM	140 ± 30 nM	160 ± 40 nM	690 ± 240 nM	1350 ± 50 nM	980 ± 40 nM	Toxic side effect ([10]; 12.5, 25 and 50 mg/kg, gavage, twice daily, 10 days): negligible toxic side effect; Effect on weight gain of nude mouse ([10]; only for the highest dose of 50 mg/kg, FIG. 3): mild effect on weight gain; Tumor inhibition rate ([2]; 12.5 mg/kg, gavage, each at morning and evening, for 10 days): 67.5%; Tumor inhibition rate ([2]; 25 mg/kg, gavage, each at morning and evening, for 10 days): 83%; Tumor inhibition rate ([2]; 50 mg/kg, gavage, each at morning and evening, for 10 days): 88.6%
CCc1cc2c(cn1)C(c1ccccc1Cl)=Nc1c(n[nH]c1C)N2 [Compound I-2, 9-(2-chlorophenyl)-6-ethyl-1-methyl-2,4-dihydrogen-2,3,4,7,10-pentaaza-benzo [f] azulene]	70 ± 30 nM	90 ± 10 nM	850 ± 100 nM	very significant inhibition	60 ± 40 nM	40 ± 10 nM	80 ± 10 nM	250 ± 140 nM	620 ± 10 nM	700 ± 20 nM	Tumor inhibition rate ([1]; 4 mg/kg, gavage, once per day, for 17 days): 72.5%; Tumor inhibition rate ([1]; 6 mg/kg, gavage, once per day, for 17 days): 97.3%; Tumor inhibition rate ([1]; 9 mg/kg, gavage, once per day, for 17 days): 100%; Toxic side effect ([14]; 4, 6 and 9 mg/kg, gavage, once per day, 17 days): negligible toxic side effect; Effect on weight gain of nude mouse ([14]; only for the highest dose of 9 mg/kg on treatment day 3-6, FIG. 6): mild effect on weight gain
Cc1cc2c(cn1)C(c1ccccc1F)=Nc1c(n[nH]c1C)N2 [Compound I-3]	1950 ± 230 nM	1630 ± 130 nM	11300 ± 1300 nM		1940 ± 240 nM	820 ± 190 nM	740 ± 80 nM	3250 ± 250 nM	7270 ± 590 nM	4860 ± 390 nM	
